Experimental data from patent publication US10300055B2, “Treatment of parkinson's disease through ARFGAP1 inhibition” (Dalhousie University, priority 2014, dated 2019).

Biological target: T1, hArfGAP1 (human ArfGAP1) (Homo sapiens, UniProt Q8N6T3)
T1 construct: expressed in transfected cells; host or cells: Saccharomyces cerevisiae strain PPY17:114-3B-141-A (gcs1::NatR, pdr5::HIS3, snq2::TRP1), galactose-induced
Assay: Yeast growth restoration screen: S. cerevisiae gcs1 knockout strain expressing hArfGAP1
Type: cell-based
Conditions: retest at various concentrations, FIG. 5; A600; compared with 3B-VEC empty vector strain
Text: Overexpression of heterologous proteins in the yeast Saccharomyces cerevisiae often inhibits its growth, while inhibitors of the overexpressed proteins can restore growth. These simple observations form the basis of a powerful assay to identify inhibitors of such proteins. An expression plasmid for the inducible expression of a gene of interest is introduced into a yeast strain rendered more sensitive to chemicals by deletion of efflux pumps. Protein expression is induced, cells are exposed to test chemicals, and growth is measured by optical density at 600 nm (OD600 or A600) reading.
In the instant case, a S. cerevisiae gcs1 knockout strain is employed bearing a vector expressing the heterologous protein hArfGAP1 (human ArfGAP1, the human ortholog of yeast GCS1). Generally, expression of ArfGAP1 will suppress growth of gcs1 knockout yeast and thus small molecules that inhibit ArfGAP1 will lead to observable increases in growth. This in turn allows for the direct identification of small molecules that could be used to treat LRRK2-mutation induced PD.
PPY17:114-3B-vec (gcs1::NatR, pdr5::HIS3, snq2::TRP1, ura3, ade2, carrying plasmid pRS315) [empty vector control strain]; PPY17:114-3B-141-A (gcs1::NatR, pdr5::HIS3, snq2::TRP1, ura3, ade2, carrying plasmid pPP16:141 pGAL1-hArfGAP1) [human ArfGAP1-expressing strain].
1. The day before screening, the control strain containing the empty plasmid and the selected test strain bearing the plasmid with the gene of interest were inoculated into 2 mL of SC selection medium containing 2% glucose. Cells were grown overnight at 30° C. with shaking at 220 rpm. Note: it can be observed that the yeast strain expressing human expression vector and the yeast strain containing the empty vector grow at the same rate in glucose, which represses ArfGAP1 expression.
4. The pellet was suspended in 1-mL sterile water and the A 600 was measured. […]
9. Stacks of five plates were shaken on a vortexer at low speed (e.g., setting 4 of a Genie 2 Vortex mixer) for 90 s to resuspend the yeast cells, and the A 600 was measured using a 96-well plate reader. […]

T1 sequence (Q8N6T3 whole entry): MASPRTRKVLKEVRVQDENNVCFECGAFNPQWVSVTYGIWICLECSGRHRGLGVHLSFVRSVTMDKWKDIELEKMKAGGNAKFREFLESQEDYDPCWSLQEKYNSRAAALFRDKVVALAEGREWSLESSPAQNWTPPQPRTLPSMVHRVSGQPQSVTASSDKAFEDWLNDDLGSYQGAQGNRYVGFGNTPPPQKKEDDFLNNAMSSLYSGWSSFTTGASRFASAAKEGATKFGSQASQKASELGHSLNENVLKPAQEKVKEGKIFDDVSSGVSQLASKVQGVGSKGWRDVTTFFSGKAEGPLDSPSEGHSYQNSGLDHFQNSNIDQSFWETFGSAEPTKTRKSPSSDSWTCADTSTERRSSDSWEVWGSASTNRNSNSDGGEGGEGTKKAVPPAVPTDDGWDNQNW

Row | Compound | growth of yeast ArfGAP1 gcs1 knockout strains
1 | O=[N+]([O-])c1ccc(N2CCN(Cc3cccs3)CC2)cc1 [compound 5261344] | dose-dependent growth
2 | CC(=O)c1ccc(N2CCN(CC3=CC[C@H]4C[C@@H]3C4(C)C)CC2)cc1 [compound 5429814] | dose-dependent growth
3 | C/C=C(\C)CN1CCN(c2ccc(C(C)=O)cc2)CC1 [compound 5431942] | dose-dependent growth
